PubChem BioAssay AID2060508 (Molecular Pharmacology Branch, DTP, NCI, 2025)
pIC50: −log10 of the molar value. “And” between values parts separate entries of the source, which are not always exact repeats. Equal values may be shown once.

Test system: 454973-116-R2-J3-PDC spheroids, viability, % test/control
Test: Anticancer human tumor 454973-116-R2-J3-PDC patient-derived pancreatic carcinoma cell line growth inhibition [GQUAD]
Details: spheroids with HUVEC and MSC; for viability, T/C: stronger effect = lower value
From the text: DNA G-quadruplex Stabilizer Agents in Combinations in Complex Spheroids
A high-throughput screen of multi-cell type tumor spheroids was designed to identify active combinations of DNA G-quadruplex stabilizer agents and targeted small molecules. Complex spheroids include a stromal component modeled by human endothelial cells (HUVEC) and fibroblasts modeled by human mesenchymal stem cells (MSCs). The concentration ranges selected for each drug and investigational agent were based upon clinically achievable concentrations if the clinical Cmax of the agent was known.
Compounds. The drugs and investigational agents: pidnarulex (CX-5461; NSC782164), APTO-253 (NSC789042), BRACO-19 (NSC847499), peposertib (NSC802822), ceralasertib (NSC780249), elimusertib (NSC800525), camonsertib (NSC841442), AZD-1390 (NSC803789), olaparib (NSC753686), talazoparib (NSC767125), ART-558 (NSC835418), sotorasib (NSC818433), MRTX-1133 (NSC836407), SN-38 (NSC673596), topotecan (NSC609699), etoposide (NSC141540), doxorubicin (NSC123127), gemcitabine (NSC613327), 5-fluorouracil (NSC19893), paclitaxel (NSC125973), vemurafenib (NSC761431), panobinostat (NSC761190), R-306465 (JNJ-16241199; NSC773264), adavosertib (NSC754352), TP-3654 (NSC805149), carboplatin (NSC241240), KSQ-4279 (NSC840948), and staurosporine (NSC755774) were obtained from the National Cancer Institute (NCI) Developmental Therapeutics Program Chemical Repository (34). The FDA-approved anticancer drug set is available from the NCI Developmental Therapeutics Program. […] The stock solutions were prepared in dimethyl sulfoxide (DMSO, Sigma-Aldrich, St. Louis, MO, cat. D2650) at 800-fold the tested concentration and stored at -70 degrees C prior to their use. All drugs and investigational agents were tested over a range starting from a high concentration at or near the clinical Cmax and decreasing in half-log increments. If the clinical Cmax for an agent had not been determined, the highest concentration tested was 10 microM.
2.3 Cell Culture. All cells were maintained in an incubator at 37 degrees C and 5% CO2 with 95% humidity. The PDC lines were cultured according to standard operating procedures established by the NCI PDMR. All PDCs were thawed and cultured in Matrigel-coated flasks prepared with a working solution of 1X Ham's F-12 nutrient mix, without supplementation (Invitrogen, cat. 11765054), 100 U/mL penicillin-streptomycin (Invitrogen, cat. 15140122), and 2.5% Matrigel (Corning Inc., cat. 354248) for the first three passages. The 857933-349-R-J2-PDC line was cultured in 6C/Colon 1B media, which includes advanced DMEM/F-12 (Thermo Fisher Scientific, cat. 12634028), 10 mM HEPES (Thermo Fisher Scientific, cat. 15630080), 1X GlutaMAX supplement (Thermo Fisher Scientific, cat. 35050061), 0.1 mg/mL primocin (InvivoGen, cat. ant-pm-2), 10% defined fetal bovine serum, heat inactivated (HyClone Laboratories Inc., cat. SH30070.03HI), 50% L-WRN conditioned media (ATCC, cat. CRL-3276), 1.25 mM N-Acetyl-L-cysteine (Sigma-Aldrich, cat. A9165), 10 mM nicotinamide (Sigma-Aldrich, cat. N0636), 1X B-27 supplement (Thermo Fisher Scientific, cat. 17504044), 1X N-2 supplement (Thermo Fisher Scientific, cat. 17502048), 10 microM Y-27632 dihydrochloride (Tocris Bioscience, cat. 1254), and 50 ng/mL human EGF recombinant protein (Thermo Fisher Scientific, cat. PHG0311). The 485176-168-R4-J1-PDC line was cultured in Panc media, which includes all 6C/Colon 1B media components plus 100 ng/mL human FGF-10 (Thermo Fisher Scientific, cat. 100-26), 500 nM SB-431542 (Selleckchem, cat. S1067), and gastrin (Tocris, cat. 3006).
[…]
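Further: spheroids exposed to compounds for seven days.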

Compound `COc1cc(C2c3cc4c(cc3C(OC3OC5COC(C)OC5C(O)C3O)C3COC(=O)C23)OCO4)cc(OC)c1O` (centres undefined) + CN(C)c1ccc(Nc2c3ccc(NC(=O)CCN4CCCC4)cc3nc3cc(NC(=O)CCN4CCCC4)ccc23)cc1 has a pIC50 (curve of first compound, second compound 0.0316 µM) of 5.91, a pIC50 (curve of first compound, second compound 0.1 µM) of 5.90 and a pIC50 (curve of first compound, second compound 0.316 µM) of 5.96. It also gave a pIC50 (curve of first compound, second compound 1 µM) of 6.10, a pIC50 (curve of first compound, second compound 3.16 µM) of 6.13 and a pIC50 (curve of first compound, second compound 10 µM) of 6.09. It also gave a viability, T/C (second compound 0.0316 µM, first compound 0.0316 µM) of 102%, a viability, T/C (second compound 0.0316 µM, first compound 0.1 µM) of 95.6% and a viability, T/C (second compound 0.0316 µM, first compound 0.316 µM) of 87.9%. For the same compound, the viability, T/C (second compound 0.0316 µM, first compound 1 µM) was 55.1%, the viability, T/C (second compound 0.0316 µM, first compound 3.16 µM) was 25.9% and the viability, T/C (second compound 0.0316 µM, first compound 10 µM) was 15%. For the same compound, the viability, T/C (second compound 0.1 µM, first compound 0.0316 µM) was 106%, the viability, T/C (second compound 0.1 µM, first compound 0.1 µM) was 98.7% and the viability, T/C (second compound 0.1 µM, first compound 0.316 µM) was 89.1%. The viability, T/C (second compound 0.1 µM, first compound 1 µM) was 58.8%, the viability, T/C (second compound 0.1 µM, first compound 3.16 µM) was 21.3% and the viability, T/C (second compound 0.1 µM, first compound 10 µM) was 15.3%. For the same compound, the viability, T/C (second compound 0.316 µM, first compound 0.0316 µM) was 97.3%, the viability, T/C (second compound 0.316 µM, first compound 0.1 µM) was 98.7% and the viability, T/C (second compound 0.316 µM, first compound 0.316 µM) was 78.8%. It also gave a viability, T/C (second compound 0.316 µM, first compound 1 µM) of 51.8%, a viability, T/C (second compound 0.316 µM, first compound 3.16 µM) of 27.2% and a viability, T/C (second compound 0.316 µM, first compound 10 µM) of 14.3%. For the same compound, the viability, T/C (second compound 1 µM, first compound 0.0316 µM) was 105%, the viability, T/C (second compound 1 µM, first compound 0.1 µM) was 89.1% and the viability, T/C (second compound 1 µM, first compound 0.316 µM) was 78%. For the same compound, the viability, T/C (second compound 1 µM, first compound 1 µM) was 39.4%, the viability, T/C (second compound 1 µM, first compound 3.16 µM) was 28.7% and the viability, T/C (second compound 1 µM, first compound 10 µM) was 15.7%. It also gave a viability, T/C (second compound 3.16 µM, first compound 0.0316 µM) of 89.2%, a viability, T/C (second compound 3.16 µM, first compound 0.1 µM) of 88.7% and a viability, T/C (second compound 3.16 µM, first compound 0.316 µM) of 80.5%. It also gave a viability, T/C (second compound 3.16 µM, first compound 1 µM) of 38.5%, a viability, T/C (second compound 3.16 µM, first compound 3.16 µM) of 31.6% and a viability, T/C (second compound 3.16 µM, first compound 10 µM) of 16.3%. The viability, T/C (second compound 10 µM, first compound 0.0316 µM) was 79.2%, the viability, T/C (second compound 10 µM, first compound 0.1 µM) was 71.3% and the viability, T/C (second compound 10 µM, first compound 0.316 µM) was 66.2%. It also gave a viability, T/C (second compound 10 µM, first compound 1 µM) of 45.5%, a viability, T/C (second compound 10 µM, first compound 3.16 µM) of 31.8% and a viability, T/C (second compound 10 µM, first compound 10 µM) of 20.9%.
For `CCc1c2c(nc3ccc(O)cc13)-c1cc3c(c(=O)n1C2)COC(=O)[C@]3(O)CC`, the viability, T/C (compound 0.000999 µM) was 67.3% and 74.7% and 64.5%, the viability, T/C (compound 0.00316 µM) was 29.2% and 22.9% and 21.4% and the viability, T/C (compound 0.00999 µM) was 22.2% and 25.2% and 19.8%. The viability, T/C (compound 0.0316 µM) was 14.2% and 15.5% and 15.7%, the viability, T/C (compound 0.0999 µM) was 9.13% and 8.23% and 8.16% and the viability, T/C (compound 0.316 µM) was 4.31% and 4.99% and 4.01%. For the same compound, the pIC50 (curve of compound) was 8.75 and 8.74 and 8.82.
